From article PMC7806935, “Exosite inhibition of ADAMTS-5 by a glycoconjugated arylsulfonamide” (Scientific Reports, 2021)

Biological target: T1, ADAMTS-5 MDTCS (Homo sapiens, UniProt Q9UNA0)
T1 construct: ADAMTS-5 MDTCS (lacking the C-terminal TS motif but retaining full versicanase activity); made in house; host or cells: HEK293T
T1 sequence (Q9UNA0 262-874 limits assumed): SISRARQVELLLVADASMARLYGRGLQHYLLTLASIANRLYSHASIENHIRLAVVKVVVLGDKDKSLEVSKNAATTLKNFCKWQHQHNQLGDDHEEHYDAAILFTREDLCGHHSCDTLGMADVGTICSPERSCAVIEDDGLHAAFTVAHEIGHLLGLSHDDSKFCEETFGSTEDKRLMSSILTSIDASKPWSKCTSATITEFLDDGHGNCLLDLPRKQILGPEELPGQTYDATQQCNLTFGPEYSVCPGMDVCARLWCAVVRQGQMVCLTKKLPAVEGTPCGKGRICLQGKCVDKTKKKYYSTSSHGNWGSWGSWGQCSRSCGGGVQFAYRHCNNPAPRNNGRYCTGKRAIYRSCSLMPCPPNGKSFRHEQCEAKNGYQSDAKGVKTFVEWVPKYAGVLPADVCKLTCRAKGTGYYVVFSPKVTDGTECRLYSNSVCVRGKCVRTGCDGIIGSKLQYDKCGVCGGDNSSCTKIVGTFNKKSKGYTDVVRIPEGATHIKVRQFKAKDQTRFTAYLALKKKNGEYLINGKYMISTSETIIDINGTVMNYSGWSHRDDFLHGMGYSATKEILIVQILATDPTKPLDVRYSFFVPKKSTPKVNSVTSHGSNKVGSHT
Experiment: Dual inhibition study (GM6001 with or without 4b, QF peptide cleavage)
Assay type: biochemical
Method: Figure 3 Compound 4b binds to the ADAMTS-5 Mp/Dis domains in the presence of GM6001. (A, B) Compound 4b inhibits versicanase activity of both full-length (FL) ADAMTS-5 and its variant containing only the Mp/Dis domains (ADAMTS-5 MD). Compound 4b (100 μM) or DMSO was incubated either with ADAMTS-5 FL (0.2 nM, A) or ADAMTS-5 MD (26 nM, B) for 2 h at 37 °C before addition of V1-5GAG (50 nM). At each time point, reactions were stopped by addition of EDTA and versikine fragments quantified by sandwich ELISA as reported in the Methods section. In the DMSO control, complete proteolysis was achieved after 7200 s. […]
QF peptide cleavage assays were conducted in 96-well black microtiter plates (Scientific Laboratories Supplies Ltd, Wilford, UK) using a Fluostar Omega microplate reader (BMG Labtech, Aylesbury, UK). The activity of ADAMTS-4 (1 nM) and -5 (5 nM) was monitored for 2 h using the fluorescent peptide substrates fluorescein 5(6)-carbonyl-Ala-Glu-Leu-[…]-Gly-Arg-Pro-Ile-Ser-Ile-Ala-Lys-N,N,N0,N0-tetramethyl-6-carboxyrhodamine-NH2 (FAM-AE ~ LQGRPISIAK-TAMRA, ADAMTS-4) and fluorescein 5(6)-carbonyl-Thr-Glu-Ser-Glu ~ Ser-Arg-Gly-Ala-Ile-Tyr-Lys-Lys-N,N,N0,N0-tetramethyl-6-carboxyrhodamine-NH2 (FAM-TESE ~ SRGAIYKK-TAMRA, ADAMTS-5) (custom-synthesized by Bachem, Bubendorf, Switzerland) with an excitation wavelength of 485 nm and an emission wavelength of 538 nm. […]

IC50 (QF peptide, DMSO, no 4b, read-out: IC50^− (in the absence of 4b)): 370 ± 90 nM | IC50^+/IC50^− (ratio with/without 10 μM 4b, < 1 synergistic): 0.043
SMILES: CNC(=O)[C@H](Cc1c[nH]c2ccccc12)NC(=O)[C@@H](CC(=O)NO)CC(C)C [GM6001]
